Key:
[1] = molecular target: Opioid receptors; mu/kappa/delta (Homo sapiens, UniProt P41145+P41143+P35372); experiment: Ability to displace [3H]etorphine from Opioid receptors in guinea pig brain; set-up: species or system Cavia porcellus
Mus musculus = experiment: Effective dose required for analgesic potency in the hotplate procedure after sc injection into mice.; format: functional

| SMILES | IC50 [1] [nM] | ED50 (Mus musculus) [mg/kg] |
| --- | --- | --- |
| CCC(=O)O[C@@]1(c2ccccc2)CCN(C)C(C)C1 (single isomer, unassigned; (+)) | 11000 | 5.5 |
| CCC(=O)O[C@]1(c2ccccc2)CCN(C)[C@@H](C)C1 | 1200 | 0.53 |
| CN1CC[C@]23c4c5ccc(O)c4O[C@H]2[C@@H](O)C=C[C@H]3[C@H]1C5 [MORPHINE] |  | 1.2 |
| CCC(=O)OC1(c2ccccc2)CCN(C)C(C)C1 (racemic) | 2000 | 0.52 |
| CCOC(=O)C1(c2ccccc2)CCN(C)CC1 [MEPERIDINE] |  | 1.3 |
